Series [1] relates to CB1 receptors. On the set-up: method as in PMID 22172309. Particulars: cited from earlier work.
Series [2] deals with CB2 receptor. More on the design: method as in PMID 22172309. Conditions: cited from earlier work; for Ki: CB2 receptor.
Series [3] can be described thus: Parallel artificial membrane permeability assay, blood-brain barrier (PAMPA-BBB). Conditions: for Papp at 2.75 h, 0.2 mg/mL: PAMPA, pH 7.4; for Classification / Pe experimental: Table S2, PAMPA-BBB; for PAMPA-BBB Score: porcine brain lipid membrane. As for the experimental part: In a 5 mL glass vial, 1 mg of each compound (test or control) was dissolved in 1 mL of ethanol. Then, 500 μL of ethanol and 3.5 mL of PBS at pH 7.4 were added to this solution. […] After 5 min, the donor plate received 180 μL of each compound solution in triplicate. […] The experiments were performed in triplicate with two different analyses (n = 2).
On the technique in general: PAMPA measures passive passage across an artificial lipid membrane.

The nature of series [4]: Parallel artificial membrane permeability assay, gastrointestinal (PAMPA-GI / PAMPA-GTI). Conditions: for Papp at 8 h, 0.5 mM: PAMPA; for Classification / Pe Exp / Fa: Table S1, PAMPA-GTI; for Fa / PAMPA-GI Fa Exp: absorbed fraction; for PAMPA-GI Fa Exp: soybean L-α-phosphatidylcholine membrane.
Experimental: A 10 mM solution of each compound (tests and controls) was prepared in DMSO. Then, in a 5 mL glass flask, 250 µL of the freshly prepared solution was homogenized with 4750 µL of PBS at pH 6.6 to a concentration of 10 mM. The solution was then filtered in a 0.45 µm PVDF filter and set aside. Then, 180 µL of a solution of phosphate-bufffered saline (PBS, pH 7.4):DMSO (95:5) was added to the wells of the receptor plate, and 5 µL of the soy L-α-phosphatidylcholine lipid solution (20 mg/mL in dodecane) was added to the wells of the donor plate. After 5 min, the donor plate received 180 µL of the reserved solution containing each compound. […] After this period, the donor plate was removed, and the contents of the recipient plate were transferred to a UV reading plate and read (SpectraMax 5, Molecular Devices) at the maximum wavelengths for each compound. The blank was prepared with 180 µL of PBS solution (pH 7.4):DMSO (95:5). The experiments were carried out in triplicate with two different analyses (n = 2) [37]. The optical density values obtained from the readings at each selected wavelength for each of the compounds were analyzed by comparison with the values of the controls. These values were used to determine the absorbed fraction (Fa %) using the JMP® program version 10.0.
A short description of series [5]: Aqueous solubility (thermodynamic, UV spectroscopy). Format: physicochemical. Conditions: aqueous buffer, thermodynamic from solid, phosphate buffer pH 7.4, 37 °C. As for the experimental part:
The test was performed based on the absorbance obtained by ultraviolet spectroscopy. The scanning wavelength was determined according to the highest absorbance observed for each compound. Saturated aqueous solution of the analyzed compounds were stirred for 4 h at 37 °C, and then filtered through a 0.45 µm PVDF filter and transferred to a quartz cuvette (10 mm optical path) for reading. Solubility was determined by linear regression based on the equation of the line.

Series [6] deals with plasma carboxylesterases. As to the kind of experiment: Plasma stability against enzymatic hydrolysis. In kind it is in vitro ADME, Wistar rats. Particulars: rat plasma, determined after 240 min. As for the experimental part:
For the evaluation of plasma stability against plasma carboxylesterases, a pool of plasma male Wistar rats weighing 300–360 g kept in the vivarium of the Laboratory of Biochemical and Molecular Pharmacology-UFRJ was used. Blood was collected with heparin and kept on ice. Then, the samples were centrifuged at 2000 rpm for 15 min at 20 °C, with subsequent removal of the plasma. The plasma was then diluted 80% (v/v) with phosphate buffer (PBS; pH = 7.4) at 37 °C. The experiments performed in this work were approved by the Ethics Committee on the Use of Animals in Scientific Experiments of the Health Sciences Center of the Federal University of Rio de Janeiro (Number 028/15). The biological matrix was incubated at 37 °C under agitation for 30, 60, 120, and 240 min. The degree of degradation was evaluated by HPLC-PDA with methyl 1,1′bisphenyl-4-carboxylate as an internal standard (PI), using an isocratic mobile phase of 70%:30% acetonitrile:water (0–15 min), an injection volume of 20 μL, a flow rate of 1 mL/min, and detection at 254 nm.

The nature of series [7]: Distribution coefficient at pH 7.4 (shake-flask, octanol/phosphate buffer). Format: physicochemical. Conditions: 1-octanol/buffer pH 7.4; n-octanol/buffer partitioning at pH 7.4, UV method; read-out: Log D7.4. On the procedure:
The assay was performed based on the shake-flask method and the absorbance readings by ultraviolet spectroscopy at maximum absorbance wavelength. To a Falcon tube with a capacity of 15 mL, 5 mL of buffer solution at pH 7.4 and 5 mL of 1-octanol were added. Then, the tested compounds were added at defined concentrations of approximately 10–15 µM, and the mixtures were homogenized via vigorous manual shaking. Next, the Falcon tubes were stirred for 4 h at 37 °C, and the experiment was carried out in triplicate for each compound. Subsequently, each sample was placed in a separatory funnel, and the collected aqueous phase was filtered through a 0.45 µm PVDF filter and transferred to a quartz cuvette (10 mm optical path) for UV/Vis reading. The distribution coefficient of each compound at pH 7.4 was determined by linear regression using the straight-line equation [33].

Series [8] relates to formalin-induced licking behavior in mice. Put plainly: Formalin-induced licking behavior. In kind it is in vivo, Swiss Webster mice. On the procedure:
This assay was performed as described by Hunskaar et al. and adapted by Gomes et al.. This model was characterized by a response that occurred in two phases. The first phase (acute neurogenic pain) occurred during the first 5 min after the intraplantar injection of formalin, and the second phase (inflammatory pain) occurred 15 to 30 min post-injection. Mice were pretreated with oral doses of LASSBio-2265 (11, at 1, 3 or 10 mg/kg, p.o.), morphine (2.5 mg/kg, i.p.), acetylsalicylic acid (ASA, 200 mg/kg, p.o.), or the vehicle (same amount of DMSO used to solubilize the substances + NaCl 0.9%) 60 min before the administration of formalin. […] Then, mice (n = 7 per group) received 20 μL of formalin (2.5% v/v) in the dorsal surface of the left hind paw. The time that the mice spent licking the injected paw was immediately recorded. […] The final volume administered to mice was 0.1 mL.

In series [9] the target is T1, human CB1 (Homo sapiens, UniProt P21554).
T1 construct: host or cells: CHO cells
T1 sequence (P21554 whole entry): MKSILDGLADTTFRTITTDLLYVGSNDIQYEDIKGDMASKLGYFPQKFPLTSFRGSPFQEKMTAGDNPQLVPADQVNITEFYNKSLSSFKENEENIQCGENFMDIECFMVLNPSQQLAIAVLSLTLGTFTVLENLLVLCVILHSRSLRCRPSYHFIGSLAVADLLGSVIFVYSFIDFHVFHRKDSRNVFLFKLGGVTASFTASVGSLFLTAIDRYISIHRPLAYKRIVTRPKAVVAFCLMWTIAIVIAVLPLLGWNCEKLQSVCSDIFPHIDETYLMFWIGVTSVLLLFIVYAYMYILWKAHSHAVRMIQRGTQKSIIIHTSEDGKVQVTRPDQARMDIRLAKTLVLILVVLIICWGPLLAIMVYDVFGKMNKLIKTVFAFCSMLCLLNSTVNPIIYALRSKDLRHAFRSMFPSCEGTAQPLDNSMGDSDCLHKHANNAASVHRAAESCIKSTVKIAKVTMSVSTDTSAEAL
Put plainly: Agonist activity, cAMP in CB1-transfected CHO cells. Format: cell-based. Particulars: CB1-expressing CHO cells. On the procedure: (§1) Negative and blank controls were performed in triplicate with and without the addition of forskolin, respectively.

The target in series [10] is T2, human CB2 (Homo sapiens, UniProt P34972). As to the kind of experiment: Inverse agonist activity, cAMP Hunter CHO-K1 CNR2 Gi cells (HitHunter cAMP XS+). Format: cell-based. More on the design: host or cells: cAMP Hunter CHO-K1 CNR2 Gi. Particulars: inverse agonism, cAMP increase, 8 μM (EC20) forskolin. On the procedure:
The cellular functional assay used to evaluate the inverse agonist activity of LASSBio-2265 (11) toward the cannabinoid CB2 receptor was carried out at Eurofins DiscoveryX Corporation USA (https://www.discoverx.com/home) under the study number FR095-0025341-Q (accessed on 02 June 2021) using the GPCR Biosensor Assay. Cell line cAMP Hunter CHO-K1 CNR2 Gi was seeded at a total volume of 20 µL into white-walled, 384-well microplates and incubated at 37 °C prior to testing in the presence of 8 μM (EC20) forskolin. The media was aspirated from the cells and replaced with 15 µL a 2:1 solution of Hanks’ balanced salt solution (HBSS)/10 mM Hepes:cAMP XS+ Ab reagent. Intermediate dilution of the sample stocks was performed to generate 4× samples in assay buffer containing 32 μM forskolin. Then, 5 µL of each 4× sample was added to the cells and incubated at 37 °C for 60 min. […] After signal generation, the microplates were read with a PerkinElmer Envision instrument for chemiluminescent signal detection. Compound activity was analyzed using the CBIS data analysis suite (ChemInnovation, San Diego, CA, USA). Percent activity was calculated using the following formula: […]
(§2) Data obtained from duplicate experiments were fit to concentration-response curves by non-linear regression of the Hill equation. Curve-fit parameters and standard errors were calculated using GraphPad Prism 6.0 (Hercules, CA, USA).

In series [11] the target is T2, human CB2. As to the kind of experiment: Human CB2 (agonist radioligand) receptor binding assay, [3H]-WIN 55212-2. More on the design: host or cells: cAMP Hunter CHO-K1 CNR2 Gi. Particulars: membranes from CB2-expressing CHO cells, [3H]-WIN55212-2 radioligand, duplicate. On the procedure:
Assays of binding to CB2 receptors were performed at Eurofins Discovery France (https://www.eurofinsdiscoveryservices.com/) under the study number 100057099 (accessed on 3 June 2021) using the protocol previously published by Munro, Thomas, and Abu-Shaar. Human recombinant CB2 receptors were expressed in CHO cells, and binding was performed with [^3H]-WIN 55212-2, which is a nonselective agonist radioligand. The analysis was performed using software developed at Cerep (Hill software, Santa Barbara, CA, USA) and SigmaPlot 4.0 for Windows (^©1997 by SPSS Inc., Chicago, IL, USA).
as §2

Series [12] addresses T2, human CB2. Put plainly: Agonist activity, cAMP in CB2-transfected CHO cells. Format: cell-based. Particulars: CB2-expressing CHO cells, from 1 μM. On the set-up: host or cells: CHO cells. On the procedure:
as §1

≈ marks a conversion by molar mass, not a printed value. Entries after “also recorded” stand apart in the source; their conditions may differ.

T2 sequence (P34972 whole entry): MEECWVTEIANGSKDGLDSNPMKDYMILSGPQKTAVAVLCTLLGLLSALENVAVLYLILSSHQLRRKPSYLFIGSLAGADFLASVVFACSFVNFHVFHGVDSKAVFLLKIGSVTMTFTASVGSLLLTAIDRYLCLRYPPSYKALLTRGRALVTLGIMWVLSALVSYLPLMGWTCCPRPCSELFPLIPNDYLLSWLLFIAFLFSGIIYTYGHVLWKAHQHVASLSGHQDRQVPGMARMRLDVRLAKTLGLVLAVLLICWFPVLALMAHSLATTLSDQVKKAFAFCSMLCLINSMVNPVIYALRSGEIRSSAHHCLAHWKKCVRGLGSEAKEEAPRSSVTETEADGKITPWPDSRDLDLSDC

As for `CCCCC/C=C\C/C=C\C/C=C\C/C=C\CCCC(=O)Nc1c(C)n(C)n(-c2ccccc2)c1=O` [Compound 5], in series [1], the “Affinity for CB1 receptors” value is reported as “micromolar affinity”. For the same compound, in series [2], the Ki was 5.4 µM and the “Affinity for CB2 receptors” value is given as “micromolar affinity”.
For the compound `CCCCC/C=C\C/C=C\C/C=C\C/C=C\CCCC(=O)N(C)c1c(C)n(C)n(-c2ccccc2)c1=O` [Compound 6], in series [1], the “Affinity for CB1 receptors” value is recorded as “micromolar affinity”. Besides, in [2], the Ki was 3 µM and the “Affinity for CB2 receptors” value is reported as “micromolar affinity”.
`Cc1c(NC(=O)Cc2ccc(-c3ccccc3)cc2)c(=O)n(-c2ccccc2)n1C` [Compound 9, 2-([1,1’-biphenyl]-4-yl)-N-(1,5-dimethyl-3-oxo-2-phenyl-2,3-dihydro-1H-pyrazol-4-yl) acetamide] displayed a melting point of 221.8 °C. Moreover, in [3], the Papp at 2.75 h, 0.2 mg/mL came out at 4.51 ×10⁻⁶ cm/s; the Classification result was “CNS +”; the Pe experimental is recorded as 4,51 10-6 cm s-1; the “PAMPA-BBB Score” value is given as “CNS+ (CNS+ (high predicted BBB permeability) Pe > 4.0 × 10^−6 cm/s)”. Also, in [4], the Papp at 8 h, 0.5 mM was determined as 11 ×10⁻⁶ cm/s; the Classification result is “HIGH (high intestinal permeability: >70%)”; the “Pe Exp” value is reported as 11,00 10-6 cm/s; the Fa is given as 98,47%. The “PAMPA-GI Fa Exp” value in [4] stood at 98.47%. The same compound returned a solubility at 4 h in series [5] of 21.3 µM (≈ 8.47 µg/mL). Besides, the “Plasma Metabolization Rate” value in series [6] is given as 24.56%. In series [7], the logD was 2.14.
Consider `Cc1c(N(C)C(=O)C(C)c2ccc(-c3ccccc3)c(F)c2)c(=O)n(-c2ccccc2)n1C` (stereo not drawn) [Compound 11, N-(1,5-dimethyl-3-oxo-2-phenyl-2,3-dihydro-1H-pyrazol-4-yl)-2-(2-fluoro-[1,1’-biphenyl]-4-yl)-N-methylpropanamide], for which the “Antinociceptive effect in the formalin test” value in [8] (3 mg/kg) is given as “decreased pain behaviour”. In addition, the “Analgesia in the second (late, inflammatory) phase of the formalin test” value in series [8] (LASSBio-2265 1, 3 and 10 mg/kg p.o., morphine 2.5 mg/kg, ASA 200 mg/kg, listed as LASSBio-2265 (11)) is “remarkable analgesic activity in the late inflammatory phase; also recorded: comparable to both morphine and ASA”. In [8] (morphine 2.5 mg/kg i.p., ASA 200 mg/kg p.o., LASSBio-2265 1, 3 and 10 mg/kg p.o., compared to vehicle), the “Analgesia in the first phase of the formalin test” value was “only morphine (2.5 mg/kg) promoted significant analgesia”. In series [3], the apparent permeability (Papp) at 2.75 h, 0.2 mg/mL is 9.26 ×10⁻⁶ cm/s; the Classification result was “CNS +”; the Pe experimental is 9,26 10-6 cm s-1; the “PAMPA-BBB Score” value is “CNS+ (CNS+ (high predicted BBB permeability) Pe > 4.0 × 10^−6 cm/s)”. In addition, the “Effect on cAMP concentration” value in [9] is reported as “no effect was observed”. In addition, in [4], the Papp at 8 h, 0.5 mM was determined as 10.2 ×10⁻⁶ cm/s; the Classification result was “HIGH (high intestinal permeability: >70%)”; the “Pe Exp” value is 10,18 10-6 cm/s; the Fa is on record as 97,91%. The “PAMPA-GI Fa Exp” value in series [4] was determined as 97.91%. This compound also displayed a solubility at 4 h in [5] of 68.5 µM (≈ 30.4 µg/mL). For the same compound, the Emax in series [10] (CHO-K1, read-out: Emax (efficacy, % of the maximum effect)) came out at 63%. The midpoint of the response in [10], the EC50, lay at 0.369 ± 0.03 µM. In addition, the affinity in series [11], expressed as Ki, was 16 µM. In addition, the “Plasma Metabolization Rate” value in [6] was 13.04%. In series [12], the “Effect on cAMP concentration” value is recorded as “important effect starting from 1 μM”. For the same compound, the logD in series [7] came out at 1.98.

By Ki is commonly meant a measure of affinity in units of concentration, obtained from inhibition or displacement. What is called Papp is a coefficient for how fast a substance crosses the barrier. A low value points to poor permeation. In general, solubility refers to the dissolved amount per volume that the medium holds. Lower therefore signals a poorly soluble substance. In general, melting point refers to the temperature of the solid-liquid transition. By Emax is commonly meant the size of the effect at its maximum, as opposed to the concentration needed. In general, EC50 refers to the midpoint of the concentration-response curve.
